Assay results: patent US9266892B2, “Fused pyrazoles as FGFR inhibitors” (Incyte Corporation, priority 2012, dated 2016)

Experiments:
Assay type in all cases: biochemical
[1] = target: T1, FGFR3 (Homo sapiens, UniProt P22607); experiment: FGFR Enzymatic Assay (FRET peptide phosphorylation), FGFR3; conditions: ATP 140 μM, 25° C. for 1 hr
T1 construct: purchased Millipore
How it was run: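 FGFR3 in 50 mM HEPES pH 7.5, 10 mM […]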

[2] = target: T2, FGFR1 (Homo sapiens, UniProt P11362); experiment: FGFR Enzymatic Assay (FRET peptide phosphorylation), FGFR1; conditions: FGFR1 0.02 nM, ATP 210 μM
T2 construct: purchased Millipore or Invitrogen
How it was run: (§1)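 Human FGFR1 (0.02 nM) and FGFR2 (0.01 nM) were pre-incubated with compound for 5-10 min in HEPES buffer pH 7.5, then reacted at 25 °C for 1 hr with 500 nM biotinylated peptide and ATP (FGFR1 210 μM; FGFR2 100 μM). Phosphopeptide was detected by Eu-PY20/APC-streptavidin TR-FRET after EDTA quench. IC50 came from variable-slope sigmoidal fits.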

[3] = target: T3, FGFR2 (Homo sapiens, UniProt P21802); experiment: FGFR Enzymatic Assay (FRET peptide phosphorylation), FGFR2; conditions: FGFR2 0.01 nM, ATP 100 μM
T3 construct: purchased Millipore or Invitrogen
How it was run: as §1

Measured: IC50

T2 sequence (P11362 22-822): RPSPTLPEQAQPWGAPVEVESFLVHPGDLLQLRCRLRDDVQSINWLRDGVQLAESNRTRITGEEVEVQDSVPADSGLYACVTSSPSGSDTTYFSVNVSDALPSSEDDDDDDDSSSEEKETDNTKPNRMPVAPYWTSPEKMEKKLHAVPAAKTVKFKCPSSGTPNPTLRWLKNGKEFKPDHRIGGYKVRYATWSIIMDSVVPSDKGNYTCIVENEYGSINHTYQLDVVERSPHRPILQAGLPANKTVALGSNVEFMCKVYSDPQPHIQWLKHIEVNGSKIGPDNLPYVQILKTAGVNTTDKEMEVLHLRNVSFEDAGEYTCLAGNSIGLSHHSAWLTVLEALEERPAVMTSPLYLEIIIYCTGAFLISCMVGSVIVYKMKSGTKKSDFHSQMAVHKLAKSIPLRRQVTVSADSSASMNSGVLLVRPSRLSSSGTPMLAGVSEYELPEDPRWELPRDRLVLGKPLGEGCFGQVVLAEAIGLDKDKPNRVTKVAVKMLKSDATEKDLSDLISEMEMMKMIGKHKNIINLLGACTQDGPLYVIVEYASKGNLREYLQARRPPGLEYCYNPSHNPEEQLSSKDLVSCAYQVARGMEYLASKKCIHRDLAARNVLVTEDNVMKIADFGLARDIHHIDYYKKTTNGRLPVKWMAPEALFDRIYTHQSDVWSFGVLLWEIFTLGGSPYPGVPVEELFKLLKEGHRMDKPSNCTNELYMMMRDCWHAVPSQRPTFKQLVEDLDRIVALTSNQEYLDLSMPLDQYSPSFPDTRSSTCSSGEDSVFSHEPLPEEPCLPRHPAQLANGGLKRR
T1 sequence (P22607 23-806): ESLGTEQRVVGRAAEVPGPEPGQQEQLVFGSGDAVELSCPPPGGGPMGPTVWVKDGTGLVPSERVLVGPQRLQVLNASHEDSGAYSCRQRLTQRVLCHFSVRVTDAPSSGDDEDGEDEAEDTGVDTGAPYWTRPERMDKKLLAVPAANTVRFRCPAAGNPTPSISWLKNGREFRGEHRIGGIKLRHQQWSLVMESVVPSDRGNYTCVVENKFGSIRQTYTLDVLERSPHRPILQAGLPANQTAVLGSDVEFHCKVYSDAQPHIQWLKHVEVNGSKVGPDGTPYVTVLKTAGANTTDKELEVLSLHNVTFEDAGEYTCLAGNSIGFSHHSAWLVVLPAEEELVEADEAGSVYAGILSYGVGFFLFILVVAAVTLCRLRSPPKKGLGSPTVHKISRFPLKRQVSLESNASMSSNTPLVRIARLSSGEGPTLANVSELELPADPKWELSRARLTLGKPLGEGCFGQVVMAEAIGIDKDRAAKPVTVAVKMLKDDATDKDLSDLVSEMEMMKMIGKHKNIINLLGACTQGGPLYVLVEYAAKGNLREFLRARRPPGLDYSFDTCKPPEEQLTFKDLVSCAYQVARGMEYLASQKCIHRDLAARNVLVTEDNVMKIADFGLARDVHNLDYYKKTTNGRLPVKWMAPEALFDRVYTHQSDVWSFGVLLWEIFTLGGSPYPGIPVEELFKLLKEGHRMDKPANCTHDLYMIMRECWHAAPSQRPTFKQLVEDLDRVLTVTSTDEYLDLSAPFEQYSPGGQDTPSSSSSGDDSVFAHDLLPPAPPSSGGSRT
T3 sequence (P21802 22-821): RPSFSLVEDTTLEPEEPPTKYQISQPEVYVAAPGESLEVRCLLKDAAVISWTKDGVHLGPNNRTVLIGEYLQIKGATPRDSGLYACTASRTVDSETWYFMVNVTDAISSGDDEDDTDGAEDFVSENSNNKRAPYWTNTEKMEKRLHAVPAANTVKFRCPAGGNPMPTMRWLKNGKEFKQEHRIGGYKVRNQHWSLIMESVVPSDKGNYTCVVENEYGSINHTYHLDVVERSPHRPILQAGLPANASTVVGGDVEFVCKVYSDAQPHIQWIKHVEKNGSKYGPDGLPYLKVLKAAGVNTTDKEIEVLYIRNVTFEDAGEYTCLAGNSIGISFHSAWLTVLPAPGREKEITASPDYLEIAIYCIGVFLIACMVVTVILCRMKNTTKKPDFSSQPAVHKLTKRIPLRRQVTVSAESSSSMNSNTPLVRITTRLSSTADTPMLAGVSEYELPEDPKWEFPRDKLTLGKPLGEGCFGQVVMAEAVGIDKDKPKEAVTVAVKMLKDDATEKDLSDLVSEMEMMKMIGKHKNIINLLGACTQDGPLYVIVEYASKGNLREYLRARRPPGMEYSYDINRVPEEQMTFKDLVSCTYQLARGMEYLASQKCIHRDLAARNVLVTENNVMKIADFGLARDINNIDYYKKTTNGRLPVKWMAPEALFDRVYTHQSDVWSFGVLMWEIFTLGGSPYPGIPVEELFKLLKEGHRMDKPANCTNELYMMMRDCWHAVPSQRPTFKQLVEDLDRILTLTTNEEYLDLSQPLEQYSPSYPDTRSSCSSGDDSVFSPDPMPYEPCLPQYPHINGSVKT

COc1cc(OC)c(F)c(-c2cc3[nH]nc(-c4ccc5c(c4)CN(CCC4CCCN4C)C5=O)c3cn2)c1F (stereo not drawn) [Example 68, 5-[6-(2,6-Difluoro-3,5-dimethoxyphenyl)-1H-pyrazolo[4,3-c]pyridin-3-yl]-2-[2-(1-methylpyrrolidin-2-yl)ethyl]isoindolin-1-one]
< 100 nM: all assays above

CCN1Cc2cc(-c3n[nH]c4cc(-c5c(F)c(OC)cc(OC)c5Cl)ncc34)ccc2C1=O [Example 69, 5-[6-(2-chloro-6-fluoro-3,5-dimethoxyphenyl)-1H-pyrazolo[4,3-c]pyridin-3-yl]-2-ethylisoindolin-1-one]
< 100 nM: all assays above

COc1cc(OC)c(Cl)c(-c2cnc3c(-c4cnn(C)c4)n[nH]c3c2)c1Cl [Example 70, 6-(2,6-dichloro-3,5-dimethoxyphenyl)-3-(1-methyl-1H-pyrazol-4-yl)-1H-pyrazolo[4,3-b]pyridine]
< 100 nM: all assays above

COc1cc(OC)c(Cl)c(-c2cnc3c(-c4cnn(CCCO)c4)n[nH]c3c2)c1Cl [Example 71, 3-{4-[6-(2,6-Dichloro-3,5-dimethoxyphenyl)-1H-pyrazolo[4,3-b]pyridin-3-yl]-1H-pyrazol-1-yl}propan-1-ol]
< 100 nM: all assays above

COc1cc(OC)c(F)c(-c2ccc3c(-c4cnn(C)c4)n[nH]c3n2)c1F [Example 72, 6-(2,6-Difluoro-3,5-dimethoxyphenyl)-3-(1-methyl-1H-pyrazol-4-yl)-1H-pyrazolo[3,4-b]pyridine]
< 100 nM: all assays above

COc1cc(OC)c(Cl)c(-c2ncc3c(-c4cnn(C(C)C#N)c4)n[nH]c3n2)c1Cl (stereo not drawn) [Example 73, 2-{4-[6-(2,6-Dichloro-3,5-dimethoxyphenyl)-1H-pyrazolo[3,4-d]pyrimidin-3-yl]-1H-pyrazol-1-yl}propanenitrile]
< 100 nM: all assays above

COc1cc(OC)c(Cl)c(-c2ncc3c(-c4ccc5c(c4)CN(C4CC4)C5=O)n[nH]c3n2)c1Cl [Example 74, 2-Cyclopropyl-5-[6-(2,6-dichloro-3,5-dimethoxyphenyl)-1H-pyrazolo[3,4-d]pyrimidin-3-yl]isoindolin-1-one]
< 100 nM: all assays above

COc1cc(OC)c(Cl)c(-c2ncc3c(-c4ccc(N5CCN(C)CC5)cc4)n[nH]c3n2)c1Cl [Example 75, 6-(2,6-Dichloro-3,5-dimethoxyphenyl)-3-[4-(4-methylpiperazin-1-yl)phenyl]-1H-pyrazolo[3,4-d]pyrimidine]
< 100 nM: all assays above

COc1cc(OC)c(F)c(-c2ncc3c(-c4cnn(C(C)C#N)c4)n[nH]c3n2)c1F (stereo not drawn) [Example 76, 2-{4-[6-(2,6-Difluoro-3,5-dimethoxyphenyl)-1H-pyrazolo[3,4-d]pyrimidin-3-yl]-1H-pyrazol-1-yl}propanenitrile]
< 100 nM: all assays above

CCN1Cc2cc(-c3n[nH]c4nc(-c5c(Cl)c(OC)cc(OC)c5Cl)ncc34)cnc2C1=O [Example 77, 3-[6-(2,6-Dichloro-3,5-dimethoxyphenyl)-1H-pyrazolo[3,4-d]pyrimidin-3-yl]-6-ethyl-5,6-dihydro-7H-pyrrolo[3,4-b]pyridin-7-one]
< 100 nM: all assays above

COc1cc(OC)c(F)c(-c2ncc3c(-c4ccc5c(c4)CN(C(C)C)C5=O)n[nH]c3n2)c1F [Example 78, 5-[6-(2,6-Difluoro-3,5-dimethoxyphenyl)-1H-pyrazolo[3,4-d]pyrimidin-3-yl]-2-isopropylisoindolin-1-one]
< 100 nM: all assays above

COc1cc(OC)c(F)c(-c2ncc3c(-c4ccc5c(c4)CN(C4CCN(C)CC4)C5=O)n[nH]c3n2)c1F [Example 79, 5-[6-(2,6-Difluoro-3,5-dimethoxyphenyl)-1H-pyrazolo[3,4-d]pyrimidin-3-yl]-2-(1-methylpiperidin-4-yl)isoindolin-1-one]
< 100 nM: all assays above

COc1cc(OC)c(F)c(-c2ncc3c(-c4ccc5c(c4)CN(CCN(C)C)C5=O)n[nH]c3n2)c1F [Example 80, 5-[6-(2,6-Difluoro-3,5-dimethoxyphenyl)-1H-pyrazolo[3,4-d]pyrimidin-3-yl]-2-[2-(dimethylamino)ethyl]isoindolin-1-one]
< 100 nM: all assays above

COc1cc(OC)c(F)c(-c2ncc3c(-c4ccc5c(c4)CN(C(C)CO)C5=O)n[nH]c3n2)c1F (stereo not drawn) [Example 81, 5-[6-(2,6-Difluoro-3,5-dimethoxyphenyl)-1H-pyrazolo[3,4-d]pyrimidin-3-yl]-2-(2-hydroxy-1-methylethyl)isoindolin-1-one]
< 100 nM: all assays above

COc1cc(OC)c(F)c(-c2ncc3c(-c4ccc5c(c4)CN(CC(C)O)C5=O)n[nH]c3n2)c1F (stereo not drawn) [Example 82, 5-[6-(2,6-Difluoro-3,5-dimethoxyphenyl)-1H-pyrazolo[3,4-d]pyrimidin-3-yl]-2-(2-hydroxypropyl)isoindolin-1-one]
< 100 nM: all assays above

COc1cc(OC)c(F)c(-c2ncc3c(-c4ccc5c(c4)CN(S(C)(=O)=O)CC5)n[nH]c3n2)c1F [Example 85, 7-[6-(2,6-Difluoro-3,5-dimethoxyphenyl)-1H-pyrazolo[3,4-d]pyrimidin-3-yl]-2-(methylsulfonyl)-1,2,3,4-tetrahydroisoquinoline]
< 100 nM: all assays above

COc1cc(OC)c(Cl)c(-c2ncc3c(-c4ccc5c(c4)CCO5)n[nH]c3n2)c1Cl [Example 86, 6-(2,6-Dichloro-3,5-dimethoxyphenyl)-3-(2,3-dihydro-1-benzofuran-5-yl)-1H-pyrazolo[3,4-d]pyrimidine]
< 100 nM: all assays above

COc1cc(OC)c(F)c(-c2ncc3c(-c4cnn(C)c4)n[nH]c3n2)c1F [Example 87, 6-(2,6-Difluoro-3,5-dimethoxyphenyl)-3-(1-methyl-1H-pyrazol-4-yl)-1H-pyrazolo[3,4-d]pyrimidine]
< 100 nM: all assays above

COc1cc(OC)c(F)c(-c2cc3[nH]nc(-c4cnn(CCO)c4)c3cn2)c1F [Example 88, 2-{4-[6-(2,6-Difluoro-3,5-dimethoxyphenyl)-1H-pyrazolo[4,3-c]pyridin-3-yl]-1H-pyrazol-1-yl}ethanol]
< 100 nM: all assays above

COc1cc(OC)c(Cl)c(-c2ccc3c(-c4ccc5c(c4)CN(C4CC4)C5=O)n[nH]c3n2)c1F [Example 89, 5-[6-(2-Chloro-6-fluoro-3,5-dimethoxyphenyl)-1H-pyrazolo[3,4-b]pyridin-3-yl]-2-cyclopropylisoindolin-1-one]
< 100 nM: all assays above

COc1cc(OC)c(Cl)c(-c2cc3[nH]nc(-c4cnn(C)c4)c3cn2)c1Cl [Example 90, 6-(2,6-Dichloro-3,5-dimethoxyphenyl)-3-(1-methyl-1H-pyrazol-4-yl)-1H-pyrazolo[4,3-c]pyridine]
< 100 nM: all assays above

COc1cc(OC)c(F)c(-c2cc3[nH]nc(-c4cnn(C)c4)c3cn2)c1F [Example 91, 6-(2,6-Difluoro-3,5-dimethoxyphenyl)-3-(1-methyl-1H-pyrazol-4-yl)-1H-pyrazolo[4,3-c]pyridine]
< 100 nM: all assays above

COC(=O)c1cc2cc(-c3n[nH]c4cc(-c5c(F)c(OC)cc(OC)c5F)ncc34)ccc2o1 [Example 92, Methyl 5-[6-(2,6-difluoro-3,5-dimethoxyphenyl)-1H-pyrazolo[4,3-c]pyridin-3-yl]-1-benzofuran-2-carboxylate]
< 100 nM: all assays above

COc1cc(OC)c(F)c(-c2ncc3c(-c4ccc5nccn5c4)n[nH]c3n2)c1F [Example 93, 6-(2,6-Difluoro-3,5-dimethoxyphenyl)-3-imidazo[1,2-a]pyridin-6-yl-1H-pyrazolo[3,4-d]pyrimidine]
< 100 nM: all assays above

COc1cc(OC)c(F)c(-c2ncc3c(-c4ccc5ncccc5c4)n[nH]c3n2)c1F [Example 94, 6-[6-(2,6-Difluoro-3,5-dimethoxyphenyl)-1H-pyrazolo[3,4-d]pyrimidin-3-yl]quinoline]
< 100 nM: all assays above
